Values quoted from earlier work, collected in patent publication US20130323323A1, “Therapeutic Method and Associated Compound for Augmenting the Liver's Metabolization of Oxygen-Modified Toxins” (priority 2012, published 2013).
Like-named read-outs stand apart in the source and are kept apart here.

What was measured:
[1] = limited supply of oxygen to the liver
[2] = pure oxygen via inhalation; rats, cats, and dogs
[3] = not given; remark: listed apart in the source

Cn1c(=O)c2c(ncn2C)n(C)c1=O [Caffeine]
time to peak plasma concentration (after ingestion): 30 to 45 min
bioavailable (in vivo): ~100%

CCO [alcohol, Ethanol]
rate at which alcohol is metabolized (plateau) [1]: around 0.02 g alcohol/100 ml blood per hour

O=O [oxygen]
increase in the elimination rate of ethanol [2]: No measurable increase
solubility of oxygen in water ([3]; 5 degrees Celsius and 1 standard atmosphere): 9 ppm
solubility of oxygen in water ([3]; 25 degrees Celsius and 1 standard atmosphere): 6 ppm
